Reference: ChEMBL document CHEMBL5346863, “Discovery of substituted benzyloxy-benzylamine inhibitors of acetyltransferase Eis and their anti-mycobacterial activity” (Eur J Med Chem, 2022)
≈ marks a conversion by molar mass, not a printed value. Calls of active or inactive are those of the source. The rule behind the calls is not given here.

Experiments:
[1] = system: Mycobacteroides abscessus; assay: Antibacterial activity against Mycobacterium abscessus ATCC 19977 assessed as bacterial growth inhibition incubated for 2 to 3 weeks by resazurin dye based assay; format: functional; details: time 2-3 weeks
[2] = system: Mycobacterium avium; assay: Antibacterial activity against Mycobacterium avium ATCC 25291 assessed as bacterial growth inhibition incubated for 2 to 3 weeks by resazurin dye based assay; format: functional; details: time 2-3 weeks
[3] = system: Mycobacterium tuberculosis; assay: Antibacterial activity against Mycobacterium tuberculosis H37Ra assessed as bacterial growth inhibition incubated 2 to 3 weeks by resazurin dye based assay; format: functional; details: time 2-3 weeks
[4] = system: Mycobacterium tuberculosis; assay: Antibacterial activity against Mycobacterium tuberculosis mc2 6230 assessed as bacterial growth inhibition incubated 2 to 3 weeks by resazurin dye based assay; format: functional; details: time 2-3 weeks
[5] = target: T1, N-acetyltransferase Eis (Mycobacterium tuberculosis (strain ATCC 25618 / H37Rv), UniProt P9WFK7); assay: Inhibition of wild-type Mycobacterium tuberculosis Eis expressed in Escherichia coli BL21(DE3) cells incubated for 5 mins by Ellman's method
T1 sequence (P9WFK7 whole entry): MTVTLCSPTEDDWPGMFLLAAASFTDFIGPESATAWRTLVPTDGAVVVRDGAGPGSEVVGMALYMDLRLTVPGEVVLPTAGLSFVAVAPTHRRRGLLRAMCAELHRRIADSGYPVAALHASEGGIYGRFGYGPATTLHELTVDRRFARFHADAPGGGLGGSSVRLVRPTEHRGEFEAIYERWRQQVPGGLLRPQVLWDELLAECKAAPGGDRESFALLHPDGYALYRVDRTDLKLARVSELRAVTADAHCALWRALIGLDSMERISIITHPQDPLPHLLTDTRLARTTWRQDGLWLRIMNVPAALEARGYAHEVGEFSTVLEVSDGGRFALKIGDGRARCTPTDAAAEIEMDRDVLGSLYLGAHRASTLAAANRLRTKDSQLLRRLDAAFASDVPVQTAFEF

[6] = system: Mycolicibacterium smegmatis; assay: Antibacterial activity against Mycobacterium smegmatis mc2 122 assessed as bacterial growth inhibition incubated for 2 to 3 weeks by resazurin dye based assay; format: functional; details: time 2-3 weeks
[7] = system: J774.1; assay: Cytotoxicity against mouse J774.1 cells upto 12.5 uM incubated for 24 hrs by resazurin dye based cell viability assay; format: toxicity; details: j774.1, 24 h
[8] = system: Mycobacterium intracellulare; assay: Antibacterial activity against Mycobacterium intracellulare ATCC 13950 assessed as bacterial growth inhibition incubated for 2 to 3 weeks by resazurin dye based assay; format: functional; details: time 2-3 weeks
[9] = system: HEK293; assay: Cytotoxicity against HEK293 cells upto 12.5 uM incubated for 24 hrs by resazurin dye based cell viability assay; format: toxicity; details: human, hek293, 24 h
[10] = system: A549; assay: Cytotoxicity against human A549 cells upto 12.5 uM incubated for 24 hrs by resazurin dye based cell viability assay; format: toxicity; details: a549, 24 h
[11] = system: Mycobacterium parascrofulaceum; assay: Antibacterial activity against Mycobacterium parascrofulaceum ATCC BAA-614 assessed as bacterial growth inhibition incubated for 2 to 3 weeks by resazurin dye based assay; format: functional; details: time 2-3 weeks
[12] = system: Mycobacterium tuberculosis; assay: Antibacterial activity against Mycobacterium tuberculosis K204 assessed as MIC of kanamycin A at 95.9 uM incubated for 24 hrs followed by kanamycin A addition measured after 6 days by alamarblue dye based assay; format: functional, organism-based; details: time 7.0 day
[13] = system: Mycobacterium tuberculosis; assay: Antibacterial activity against Mycobacterium tuberculosis H37Rv assessed as MIC of kanamycin A at 100 uM incubated for 24 hrs followed by kanamycin A addition measured after 6 days by alamarblue dye based assay; format: functional; details: for Activity: time 7.0 day; for MIC: 168 h, time 7 day
[14] = system: Mycobacterium tuberculosis; assay: Antibacterial activity against Mycobacterium tuberculosis H37Rv assessed as MIC of kanamycin A at 95.9 uM incubated for 24 hrs followed by kanamycin A addition measured after 6 days by alamarblue dye based assay; format: functional, organism-based; details: time 7.0 day
[15] = system: Mycobacterium tuberculosis; assay: Antibacterial activity against Mycobacterium tuberculosis H37Rv assessed as MIC of kanamycin A at 71.7 uM incubated for 24 hrs followed by kanamycin A addition measured after 6 days by alamarblue dye based assay; format: functional, organism-based; details: time 7.0 day
[16] = system: Mycobacterium tuberculosis; assay: Antibacterial activity against Mycobacterium tuberculosis K204 assessed as MIC of kanamycin A at 71.7 uM incubated for 24 hrs followed by kanamycin A addition measured after 6 days by alamarblue dye based assay; format: functional, organism-based; details: time 7.0 day

How did the MIC [1] turn out when `Fc1ccc(COc2cccc(CNCc3ccccc3)c2)cc1` was run?
Its MIC is 31.3 µM (≈ 10.1 µg/mL).

What about the MIC [2] of the same compound?
Its MIC is 15.6 µM (≈ 5.01 µg/mL).

What about the MIC [3] of the same compound?
The MIC was 3.9 µM (≈ 1.25 µg/mL).

And the MIC [4]?
Its MIC is 50 µM (≈ 16.1 µg/mL).

And the IC50 [5]?
Its IC50 is 7.3 µM.

`CC(C)(C)c1ccc(COc2ccc(CNCc3ccccc3)cc2)cc1` was tested. Which MIC [1] did it give?
Its MIC is 7.8 µM (≈ 2.8 µg/mL).

What about the MIC [2] of the same compound?
The MIC was 31.3 µM (≈ 11.3 µg/mL).

What about the MIC [3] of the same compound?
The MIC was 1 µM (≈ 0.36 µg/mL).

And the MIC [6]?
The MIC was 3.9 µM (≈ 1.4 µg/mL).

What about the MIC [4] of the same compound?
The MIC was 12.5 µM (≈ 4.49 µg/mL).

And the IC50 [5]?
Its IC50 is > 200 µM.

With `Brc1ccc(COc2ccccc2CNCc2cccnc2)cc1` as the compound, how does the Activity [7] read?
The Activity was “Non-Toxic”.

And the MIC [8]?
The MIC was > 62.5 µM.

What about the MIC [1] of the same compound?
Its MIC is > 62.5 µM.

And the Activity [9]?
The Activity was “Non-Toxic”.

What about the Activity [10] of the same compound?
Its Activity is “Non-Toxic”.

What about the MIC [11] of the same compound?
The MIC was > 62.5 µM.

And the MIC [2]?
Its MIC is > 62.5 µM.

What about the Activity [12] of the same compound?
The Activity was “Active”.

What about the Activity [13] of the same compound?
Its Activity is “Active”.

What about the MIC [4] of the same compound?
The MIC was 100 µM (≈ 38.3 µg/mL).

What about the IC50 [5] of the same compound?
The IC50 was ~8 µM.

What about the Activity [14] of the same compound?
The Activity was “Active”.

For `Clc1ccc(COc2cccc(CNCc3ccccc3)c2)cc1`, which MIC [1] is on record?
The MIC was 31.3 µM (≈ 10.6 µg/mL).

And the MIC [3]?
The MIC was 15.6 µM (≈ 5.27 µg/mL).

What about the MIC [4] of the same compound?
The MIC was 12.5 µM (≈ 4.22 µg/mL).

And the IC50 [5]?
The IC50 was 5.4 µM.

What does the source list for `Fc1ccc(COc2ccc(CNCc3cccnc3)cc2)cc1`?
Activity [15]: Active; MIC [8]: 31.3 µM (≈ 10.1 µg/mL); MIC [1]: 31.3 µM (≈ 10.1 µg/mL); MIC [2]: > 62.5 µM; Activity [13]: Active; MIC [3]: 31.3 µM (≈ 10.1 µg/mL); MIC [4]: 50 µM (≈ 16.1 µg/mL); IC50 [5]: 3.9 µM; Activity [16]: Active

What does the source list for `Brc1ccc(COc2ccccc2CNCc2ccncc2)cc1`?
MIC [1]: > 62.5 µM; MIC [2]: > 62.5 µM; MIC [13]: ≤ 1.25 µg/mL; MIC [6]: > 62.5 µM; MIC [4]: 25 µM (≈ 9.58 µg/mL); IC50 [5]: 4.3 µM

How did the MIC [8] turn out when `Fc1ccc(COc2cccc(CNCc3cccnc3)c2)cc1` was run?
Its MIC is > 62.5 µM.

What about the MIC [1] of the same compound?
The MIC was > 62.5 µM.

And the MIC [11]?
Its MIC is > 62.5 µM.

And the MIC [2]?
Its MIC is > 62.5 µM.

What about the MIC [13] of the same compound?
The MIC was ≤ 1.25 µg/mL.

What about the MIC [3] of the same compound?
Its MIC is 62.5 µM (≈ 20.1 µg/mL).

What about the MIC [6] of the same compound?
The MIC was > 62.5 µM.

And the MIC [4]?
The MIC was 100 µM (≈ 32.2 µg/mL).

And the IC50 [5]?
The IC50 was 6.4 µM.

For `c1ccc(COc2ccccc2CNCc2ccncc2)cc1`, which MIC [8] is on record?
Its MIC is > 62.5 µM.

What about the MIC [1] of the same compound?
Its MIC is > 62.5 µM.

What about the MIC [11] of the same compound?
The MIC was 62.5 µM (≈ 19 µg/mL).

What about the MIC [2] of the same compound?
The MIC was > 62.5 µM.

And the MIC [13]?
The MIC was 2.5 µg/mL.

What about the MIC [3] of the same compound?
Its MIC is 125 µM (≈ 38 µg/mL).

And the MIC [6]?
The MIC was > 62.5 µM.

What about the MIC [4] of the same compound?
Its MIC is > 100 µM.

And the IC50 [5]?
Its IC50 is ~40 µM.

What does the source list for `c1ccc(CNCc2ccc(OCc3ccc(-c4ccccc4)cc3)cc2)cc1`?
MIC [8]: 7.8 µM (≈ 2.96 µg/mL); MIC [1]: 7.8 µM (≈ 2.96 µg/mL); MIC [11]: 15.6 µM (≈ 5.92 µg/mL); MIC [2]: > 62.5 µM; MIC [3]: 2 µM (≈ 0.759 µg/mL); MIC [4]: 12.5 µM (≈ 4.74 µg/mL); IC50 [5]: > 200 µM

For `Fc1ccc(COc2ccc(CNCc3ccccc3)cc2)cc1`, which MIC [8] is on record?
Its MIC is > 62.5 µM.

And the MIC [1]?
The MIC was > 62.5 µM.

And the MIC [11]?
The MIC was > 62.5 µM.

And the MIC [2]?
The MIC was > 62.5 µM.

What about the MIC [3] of the same compound?
Its MIC is > 250 µM.

What about the MIC [6] of the same compound?
The MIC was > 62.5 µM.

What about the MIC [4] of the same compound?
Its MIC is > 100 µM.

What about the IC50 [5] of the same compound?
The IC50 was > 200 µM.

Which MIC [8] does the source give for `c1ccc(COc2ccccc2CNCc2cccnc2)cc1` here?
Its MIC is > 62.5 µM.

And the MIC [1]?
Its MIC is > 62.5 µM.

What about the MIC [11] of the same compound?
The MIC was > 62.5 µM.

And the MIC [2]?
Its MIC is > 62.5 µM.

What about the MIC [13] of the same compound?
Its MIC is 2.5 µg/mL.

What about the MIC [3] of the same compound?
Its MIC is > 250 µM.

And the MIC [6]?
Its MIC is > 62.5 µM.

And the MIC [4]?
Its MIC is > 100 µM.

What about the IC50 [5] of the same compound?
Its IC50 is ~50 µM.

Which Activity [7] does the source give for `Clc1cccc(COc2ccccc2CNCc2ccccc2)c1` here?
The Activity was “Non-Toxic”.

And the MIC [1]?
The MIC was 31.3 µM (≈ 10.6 µg/mL).

What about the Activity [9] of the same compound?
The Activity was “Non-Toxic”.

What about the Activity [10] of the same compound?
Its Activity is “Non-Toxic”.

What about the MIC [2] of the same compound?
The MIC was > 62.5 µM.

And the Activity [13]?
The Activity was “Active”.

What about the MIC [3] of the same compound?
The MIC was 31.3 µM (≈ 10.6 µg/mL).

What about the MIC [6] of the same compound?
The MIC was 62.5 µM (≈ 21.1 µg/mL).

What about the MIC [4] of the same compound?
The MIC was 50 µM (≈ 16.9 µg/mL).

And the IC50 [5]?
Its IC50 is 6.5 µM.

For `Brc1ccccc1COc1ccc(CNCc2ccccc2)cc1`, which MIC [8] is on record?
The MIC was 3.9 µM (≈ 1.49 µg/mL).

And the MIC [1]?
The MIC was 31.3 µM (≈ 12 µg/mL).

And the MIC [11]?
Its MIC is 3.9 µM (≈ 1.49 µg/mL).

What about the MIC [2] of the same compound?
Its MIC is 15.6 µM (≈ 5.96 µg/mL).

What about the MIC [3] of the same compound?
The MIC was 3.9 µM (≈ 1.49 µg/mL).

And the MIC [6]?
The MIC was 1 µM (≈ 0.382 µg/mL).

And the MIC [4]?
Its MIC is 100 µM (≈ 38.2 µg/mL).

What about the IC50 [5] of the same compound?
The IC50 was ~8 µM.

For `c1ccc(CNCc2ccc(OCc3ccccc3)cc2)cc1`, which MIC [8] is on record?
Its MIC is 15.6 µM (≈ 4.73 µg/mL).

What about the MIC [1] of the same compound?
Its MIC is > 62.5 µM.

What about the MIC [11] of the same compound?
The MIC was 3.9 µM (≈ 1.18 µg/mL).

And the MIC [2]?
Its MIC is 62.5 µM (≈ 19 µg/mL).

And the MIC [3]?
Its MIC is 62.5 µM (≈ 19 µg/mL).

And the MIC [4]?
Its MIC is 100 µM (≈ 30.3 µg/mL).

What about the IC50 [5] of the same compound?
Its IC50 is > 200 µM.
